Results taken from article PMC9995496, “A screen for MeCP2-TBL1 interaction inhibitors using a luminescence-based assay” (Scientific Reports, 2023).
Counter-ions that a name gives are not always drawn. Like-named read-outs stand apart in the source and are kept apart here.

Test system: PRKACA-PRKAR2A interaction (SmBiT-PRKACA / LgBiT-PRKAR2A), protein kinase A
Parameters: NanoLuc complementation counter-screen in cell extract, PRKACA with PRKAR2A, loss of luminescence, detects NanoLuc interference
Settings: 0.5 h, 20 µM, inhibitor
[1] = counter-screen for NanoLuc interference

Row | Structure (SMILES) | Inh (PKA) [1] [%] | Inh (PKA) [%]
1 | COc1cccc2c1c(O)c(C(=O)N(C)c1ccc(C(F)(F)F)cc1)c(=O)n2C [UM0141635:01, Tasquinimod] | 2.103 | –
2 | Fc1ccccc1-c1nc2ccn(Cc3ccc(-c4ccc(C(F)(F)F)cc4C(F)(F)F)nn3)cc-2n1 [UM0141636:01, Tegobuvir] | 1.649 | –
3 | Cc1cc(N2CCN([C@@H]3CN[C@H](C(=O)N4CCSC4)C3)CC2)n(-c2ccccc2)n1 [UM0141637:01, Teneligliptin hydrobromide] | – | -1.766
4 | Cn1c(COP(=O)(NCCBr)NCCBr)cnc1[N+](=O)[O-] [UM0141638:01, TH-302] | – | 1.841
5 | N=C1CCCN1Cc1[nH]c(=O)[nH]c(=O)c1Cl [UM0141639:01, Tipiracil hydrochloride] | 0.165 | –
6 | Cn1c(=O)cc(N2CCC[C@@H](N)C2)n(Cc2cc(F)ccc2C#N)c1=O [UM0141640:01, Trelagliptin] | -0.04176 | –
7 | CC(C)[C@]12O[C@H]1[C@@H]1O[C@]13[C@]1(O[C@H]1C[C@H]1C4=C(CC[C@@]13C)C(=O)OC4)[C@@H]2O [UM0141641:01, Triptolide] | 1.248 | –
8 | Cc1ccc(-c2csc3ncnc(SCCC(=O)O)c23)cc1 [UM0141643:01, TTP 22] | 12.61 | –
9 | CCC1=C[C@@H]2CN(C1)Cc1c([nH]c3ccccc13)[C@@](C(=O)OC)(c1cc3c(cc1OC)N(C)[C@H]1[C@@](O)(C(=O)OC)[C@H](OC(C)=O)[C@]4(CC)C=CCN5CC[C@]31[C@@H]54)C2 [UM0141644:01, Vinorelbine ditartrate] | 3.937 | –
10 | Cc1cnc(Nc2ccc(F)cc2Cl)nc1-c1c[nH]c(C(=O)N[C@H](CO)c2cccc(Cl)c2)c1 [UM0141646:01, VX-11e] | 14.62 | –
11 | O=C(Nc1ccc(-c2ccnc(Nc3ccc(N4CCOCC4)cc3)n2)cc1)C1CCCN1 (stereo not shown) [UM0141648:01, XL019] | -3.897 | –
12 | CC(C)c1cc(CNc2nc(Nc3cc(C4CC4)[nH]n3)cc(N3CCN(C)CC3)n2)on1 [UM0141649:01, XL228] | 43.07 | –
13 | CCOc1cc(C(=O)N2CCC(N3CCN(C)CC3)CC2)ccc1Nc1ncc2c(n1)N(C1CCCC1)c1ccccc1C(=O)N2C [UM0141651:01, XMD17-109] | 18.58 | –
14 | CCOc1cc(N2CCC(O)CC2)ccc1Nc1ncc2c(n1)N(C)c1ccccc1C(=O)N2C [UM0141652:01, XMD8-92] | 14.04 | –
15 | COc1ccc(C(=O)CC2(O)C(=O)Nc3c(Cl)ccc(Cl)c32)cc1 (stereo not shown) [UM0141653:01, YK-4-279] | 4.248 | –
16 | C[C@]1(c2nc3c(C(N)=O)cccc3[nH]2)CCCN1 [UM0141654:01, Veliparib dihydrochloride] | 0.673 | –
17 | N[C@@H]1CCCN(c2c(/C=C3\SC(=O)NC3=O)cccc2-c2ccccc2)C1 [UM0141655:01, AZD1208] | 21.79 | –
18 | CC(=O)O/N=C1\C(=O)N(Cc2cc(Cl)ccc2Cl)c2ccc(Cl)cc21 [UM0141658:01, LDN 57444] | 84.34 | –
19 | Cc1ccc(/C=C2\CNC/C(=C\c3ccc(C)cc3)C2=O)cc1 [UM0141659:01, NSC 632839 hydrochloride] | 12.94 | –
20 | CC(C)(C(=O)NCC(F)(F)C(F)(F)F)C(=O)N[C@@H]1C(=O)Nc2ccccc2-c2ccccc21 [UM0141660:01, RO4929097] | 10.15 | –
21 | O=C(O)CC[C@H]1CC[C@@](c2cc(F)ccc2F)(S(=O)(=O)c2ccc(Cl)cc2)CC1 [UM0141661:01, MK-0752] | 5.084 | –
22 | CC(C)C[C@H](NC(=O)CNC(=O)c1cc(Cl)ccc1Cl)B1OC(=O)C(CC(=O)O)(CC(=O)O)O1 [UM0141662:01, MLN9708] | -0.4944 | –
23 | CC(C)C[C@H](NC(=O)CNC(=O)c1cc(Cl)ccc1Cl)B(O)O [UM0141663:01, MLN2238] | 0.9496 | –
24 | CC(C)C[C@H](NC(=O)[C@@H](NC(=O)c1cccc(-c2ccccc2)n1)[C@@H](C)O)B(O)O [UM0141664:01, CEP-18770] | 2.205 | –
25 | COc1ccc(C[C@H](NC(=O)[C@H](C)NC(=O)CN2CCOCC2)C(=O)N[C@@H](Cc2ccccc2)C(=O)[C@@]2(C)CO2)cc1 [UM0141665:01, ONX-0914 (PR-957)] | 2.946 | –
